Structures can show the parent of a compound that is named as a salt. Marks after values point to notes of the source that are not given here.
Key:
[1] = test system: ob/ob mice; assay: Antidiabetic activity in ob/ob mice; type: in vivo; details: 150 mg/kg, 10 days
[2] = test system: GLUT-4; assay: GLUT-4 translocation in insulin resistant 3T3 adipocytes (immunofluorescence); details: 1 mM, 4 days, 200nM insulin stimulated
Description: GLUT-4 translocation was evaluated by the method of Hausdorff et al [14] with a few modifications. Insulin resistant 3T3 adipocytes were prepared in 24-well plates fitted with coverslip inserts. After incubation with compounds, the media was removed. The cells were stimulated with 200nM insulin and processed for immunofluorescence detection using anti-GLUT-4 antibody (1:1000) followed by FITC labeled secondary antibody (1:1000).
Later the cells were stimulated with 200nmol/l insulin for 25 minutes. Whole cell immunofluorescence assay for GLUT-4 translocation was performed using rabbit antibody against GLUT - 4 followed by incubation with FITC labeled secondary antibody. Confocal images were obtained using Bio-Rad Laser Scanning Microscope.

[3] = test system: db/db mice; assay: Antidiabetic activity in db/db mice, once daily oral dosing; type: in vivo
Description: After two weeks of acclimatization, db/db mice were deprived of food for 4h. Their weights were measured and blood was obtained by retro-orbital puncture for the determination of plasma glucose. The animals were randomized into groups (7-10/group) based on body weight and plasma glucose levels. Animals were dosed orally once a day, between 9.00 -10.00am for 15 consecutive days, with either P1736 (150mg/kg) or metformin (150mg/kg) or 0.5% carboxy methyl cellulose (CMC) vehicle. The dose of 150 mg/kg was chosen for once-a-day dosing of P1736, on the basis of its pharmacokinetic profile and to maintain high plasma concentrations. Body weight was measured daily. On days 10 and 15, blood samples were collected at the end of the 4h fasting after drug administration. Plasma samples were analysed for biochemical parameters, by enzymatic methods using autoanalyser 902(Hitachi instruments, Japan). Plasma adiponectin levels were measured using mouse ELISA kits (Millipore Inc. USA).

[4] = test system: soleus muscles of ob/ob mice; assay: Ex vivo muscle glucose uptake in ob/ob mice; details: 150.0 mg/kg; for Glucose Uptake in soleus muscle (% Increase): ex vivo after chronic administration
Description: On day 9, food was withheld for 4 h and blood was collected for the analysis of plasma chemistry and plasma insulin levels. On days 12 and 13, 3-4 animals from each group were sacrificed and soleus muscles were excised. Radiolabelled glucose uptake was measured in the isolated soleus muscles by the method of Zierath and colleagues. Plasma Insulin was estimated using mouse ELISA kit (Linco, USA)

[5] = test system: insulin resistant 3T3 adipocytes; assay: Glucose uptake in dexamethasone-induced insulin resistant 3T3 adipocytes; type: cell-based; details: 1.0 mM, 4 days exposure
Description: Fully differentiated 3T3 adipocytes generated in 24-well plates were used after day 8 of differentiation. Insulin resistance was induced essentially as described before. Briefly, adipocytes were incubated with 100 nM dexamethasone for six consecutive days. […].
Glucose uptake was measured essentially according to the method of Gao et al using ^14C-labeled 2-deoxy glucose as the tracer. Activity in this assay is defined as a statistically significant increase in glucose uptake of minimum 50% compared to the uptake seen in cells exposed to vehicle. Effect of wortmannin on glucose uptake was studied according to the method of Hausdorff et al using 100 nM wortmannin.

[6] = 150 mg/kg oral once daily, day 10
[7] = 150 mg/kg oral once daily, day 15

CN(C)C(=N)N=C(N)N [Metformin, Metformin hydrochloride, reference compound]
lowering of plasma insulin levels [1]: 43%
GLUT-4 translocation to plasma membrane [2]: inactive
decrease in plasma triglyceride [3, 6]: 18%
reduction in plasma glucose [3, 6]: 24%
decrease in plasma triglyceride [3, 7]: 31%
reduction in plasma glucose [3, 7]: 25%
plasma adiponectin levels ([3]; 150 mg/kg oral once daily, vehicle 7.5 ± 0.44): 8.9 ± 0.64 µg/mL
Liver weight ([3]; 150mg/kg, vehicle 1.8 + 0.10): 2.1 + 0.08 gm
Plasma ALT ([3]; 150mg/kg, vehicle 91.2 + 12.7): 75.3 + 6.4 U/L
Plasma AST ([3]; 150mg/kg, vehicle 100.6 + 8.8): 101.7 + 8.4 U/L
reduction of high initial plasma glucose ([3]; db/db mice with high initial plasma glucose, 150 mg/kg once daily, 10 days): 25%
Plasma Glucose (% Reduction) [4]: 37%
Glucose Uptake in soleus muscle (% Increase) [4]: 38* %
Glucose Uptake in soleus muscle (% Increase) ([4]; listed as metformin): 38%
effect on glucose uptake [5]: no effect
